Assay: xn = mol fraction of the nth substance listed

Cc1ccc(C)cc1 + CCCCCO
293.15 K, 101.33 kPa
Conditions	viscosity [mPa·s]
x2 = 0.1458	0.727
x2 = 0.2275	0.792
x2 = 0.2722	0.836
x2 = 0.3455	0.925
x2 = 0.4093	1.022
x2 = 0.4819	1.164
x2 = 0.5534	1.356
x2 = 0.6142	1.543
x2 = 0.7185	1.973
x2 = 0.7687	2.232
x2 = 0.8498	2.747
x2 = 0.9425	3.494

O=Cc1ccccc1 + CCCCCO
viscosity [mPa·s], 101.33 kPa
Conditions	x1 = 0.1001	x1 = 0.2014	x1 = 0.3028	x1 = 0.4151	x1 = 0.5074	x1 = 0.599	x1 = 0.7004	x1 = 0.8063	x1 = 0.9052
293.15 K	3.688	3.307	2.964	2.626	2.377	2.153	1.93	1.722	1.547
303.15 K	2.699	2.481	2.281	2.078	1.924	1.783	1.639	1.501	1.383
313.15 K	2.149	2.007	1.874	1.737	1.632	1.534	1.432	1.334	1.247
323.15 K	1.279	1.254	1.229	1.202	1.181	1.16	1.137	1.113	1.092

CCCCCCCCN + CCCCN(CCCC)CCCC
viscosity [mPa·s], 101 kPa
Conditions	x2 = 0.1005	x2 = 0.202	x2 = 0.3961	x2 = 0.5022	x2 = 0.5949	x2 = 0.7991	x2 = 0.8964
303.15 K	1.149	1.138	1.126	1.125	1.127	1.14	1.151
313.15 K	0.9719	0.9612	0.9507	0.9506	0.9532	0.97	0.9821

Cc1ccc(C)cc1 + CCCCO
Conditions	viscosity [mPa·s]
298.15 K, 101.33 kPa, x2 = 0.1504	0.636
298.15 K, 101.33 kPa, x2 = 0.2649	0.692
298.15 K, 101.33 kPa, x2 = 0.3971	0.797
298.15 K, 101.33 kPa, x2 = 0.5009	0.914
298.15 K, 101.33 kPa, x2 = 0.585	1.047
298.15 K, 101.33 kPa, x2 = 0.6932	1.275
298.15 K, 101.33 kPa, x2 = 0.7688	1.493
308.15 K, 101 kPa, x2 = 0.0495	0.551
308.15 K, 101 kPa, x2 = 0.1136	0.553
308.15 K, 101 kPa, x2 = 0.206	0.562
308.15 K, 101 kPa, x2 = 0.3224	0.592
308.15 K, 101 kPa, x2 = 0.4051	0.647
308.15 K, 101 kPa, x2 = 0.5098	0.724
308.15 K, 101 kPa, x2 = 0.6322	0.796
308.15 K, 101 kPa, x2 = 0.7241	0.937
308.15 K, 101 kPa, x2 = 0.8216	1.118
308.15 K, 101 kPa, x2 = 0.9035	1.327
308.15 K, 101 kPa, x2 = 0.9621	1.619

O=C(O)CCC(=O)O + CCCCO
101 kPa
Conditions	viscosity [mPa·s]
308.15 K, x1 = 0.0162	2.167
313.15 K, x1 = 0.0162	1.91
318.15 K, x1 = 0.0162	1.704
318.15 K, x1 = 0.017	1.704
318.15 K, x1 = 0.035	1.848
318.15 K, x1 = 0.0435	1.943
318.15 K, x1 = 0.047	1.943
323.15 K, x1 = 0.0162	1.51
323.15 K, x1 = 0.0435	1.726

O=C(O)c1ccccc1C(=O)O + CCCCO
viscosity [mPa·s]
Conditions	308.15 K	313.15 K	318.15 K	323.15 K
101 kPa, x1 = 0.021	–	–	1.806	1.604
101 kPa, x1 = 0.032	–	–	1.928	1.712
101 kPa, x1 = 0.039	–	–	1.985	1.78
101.33 kPa, x1 = 0.021	2.302	2.033	1.806	1.604
101.33 kPa, x1 = 0.032	–	2.18	1.928	1.712

Reference: the CheMixHub viscosity set
